From BigSolDB 2.1

Conditions: in water

NCCS(=O)(=O)O
Conditions	solubility (mole fraction)
278.15 K	0.00667
283.15 K	0.00809
288.15 K	0.0101
293.15 K	0.0121
298.15 K	0.0141
303.15 K	0.0172
308.15 K	0.0202
313.15 K	0.0232
318.15 K	0.0264
323.15 K	0.0318
